Experimental data as given in PubChem BioAssay (NCI).
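Following 48 hours of exposure in 96-well plates, responses at five concentrations were used to interpolate endpoints linearly. TGI is the concentration that stops growth completely.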

Key:
Experiment in all cases: NCI tumour cell line growth inhibition, 48 h
[1] = system: CAKI-1 renal
[2] = system: HCT-15 colon
[3] = system: KM12 colon
[4] = system: MOLT-4 leukemia
[5] = system: NCI-H226 lung
[6] = system: NCI-H23 lung
[7] = system: NCI-H460 lung
[8] = system: OVCAR-5 ovarian
[9] = system: SF-295 CNS
[10] = system: T-47D breast

Row | Compound | TGI [1] [µM] | TGI [2] [µM] | TGI [3] [µM] | TGI [4] [µM] | TGI [5] [µM] | TGI [6] [µM] | TGI [7] [µM] | TGI [8] [µM] | TGI [9] [µM] | TGI [10] [µM]
1 | CN(C)CCCN=c1c2ccccc2n(O)c2ccccc12 | > 100 | > 100 | > 100 | > 100 | 72.7 | > 100 | > 100 | > 100 | > 100 | > 100
2 | O=C(Nc1nnc(-c2ccc(Cl)cc2)o1)C(SC(=S)N1CCOCC1)c1ccccc1 (stereo not given) | > 100 | > 100 | > 100 | > 100 | 56.4 | 70.6 | 53.3 | 88.2 | 94.4 | > 100
3 | CCCCCCCCCCCC(=O)OCC(C[As](=O)(O)O)OC(=O)CCCCCCCCCCC (stereo not given) | 21.7 | 25.5 | 21.6 | > 41.6 | 42.9 | 18 | 13.3 | 34.1 | 26.7 | 42.3
4 | CC1(C)C[C@@H]2C1CCC1(C)CC2(O)CC[C@H]1O (stereo not given in full) | > 100 | > 100 | > 100 | > 100 | > 100 | > 100 | > 100 | > 100 | > 100 | > 100
